From patent publication US11535596B2 (priority 2020, dated 2022)
Where two headings read alike, the source gives them in different places.

What was measured:
[1] = molecular target: κ opioid receptor (Homo sapiens (Human), UniProt P41145); assay: biochemical; details: 3H-diprenorphine binding; for IC50: read-out: Opiate κ IC50; for Ki: read-out: Opiate κ Ki
[2] = molecular target: μ opioid receptor (Homo sapiens (Human), UniProt P35372); assay: μ opioid receptor radioligand (3H-diprenorphine) binding assay
[3] = molecular target: sigma-1 receptors (Homo sapiens (Human), UniProt Q99720); assay: biochemical; format: binding
[4] = Caco-2 bidirectional permeability assay; format: in vitro ADME; design: Papp A→B / Papp B→A: dose or concentration left out as unconfirmed; details: human
From the text: The human colon carcinoma cell Caco-2 provides a well-established and effective model for predicting intestinal absorption of chemicals, and in determining the mechanism of transport. […] The method is used to assess the bidirectional permeability of a test compound, from the apical to the basolateral side (A-B) of a Caco-2 cell monolayer membrane, and vice versa (B-A). R. B. van Breemen, Y. Li, “Caco-2 cell permeability assays to measure drug absorption,” Expert Opin. Drug Metab. […] The transport rate of a compound across the monolayer is highly predictive of the in vivo absorption of the compound across the gut wall, and the Caco-2 permeability assay is an FDA-recommended method for evaluating the absorption of orally-administered drugs. Results of this assay for selected reference drugs and compounds of the invention are set out in Table 3.

[5] = molecular target: human recombinant hERG (Homo sapiens (Human), UniProt Q12809); assay: hERG radioligand (3H-astemizole) binding assay
From the text: Cardiac Potassium Channel (hERG) Assays
The human ether-a-go-go related gene (hERG) encodes the inward-rectifying voltage-gated potassium channel (IKr) in the heart, which is involved in cardiac repolarization. Inhibition of the hERG current causes QT interval prolongation, potentially resulting in ventricular tachyarrhythmia, and the detection of this potential liability is desirable at an early stage of drug discovery.

[6] = molecular target: human serotonin transporter (Homo sapiens (Human), UniProt P31645); assay: biochemical; details: 3H-imipramine binding, HEK-293 membranes; for IC50: read-out: SERT IC50; for Ki: read-out: SERT Ki
From the text: Serotonin Transporter (SERT) Assay
The serotonin transporter (SERT) is a monoamine transporter protein that transports serotonin from the synaptic cleft back to the presynaptic neuron (serotonin reuptake.) Serotonin modulates emotional states in humans, and inhibition of SERT activity is the basis for the SSRI class of antidepressants.

[7] = molecular target: phencyclidine site of NMDA-type glutamate receptors; assay: NMDA receptor (phencyclidine site) radioligand binding inhibition
Method: In vitro binding assays for the phencyclidine site of NMDA-type glutamate receptors, and for sigma-1 receptors, both of which are known to be bound by DM, were conducted by Sekisui Medical Co., Ltd. of Ibaraki, Japan. In these assays, DM acts as an antagonist at NMDA receptors, which are excitatory in their effects, thereby allowing DM to reduce, calm, and modulate unwanted neuronal activity in neuronal networks that are activated by glutamate agonist activity at NMDA receptors. DM acts as an agonist at sigma-1 receptors, which are inhibitory receptors, thereby allowing DM to reduce unwanted neuronal activity by a second mechanism. Assays for sigma-1 and NMDA (phencyclidine site) receptor affinities, based on inhibition of radioligand binding, provided the results shown in Table 2 below.

[8] = Drug stability in human liver microsomes; format: in vitro ADME
From the text: Testing of Drug Stability in Human Liver Microsomes
This assay involves exposing a test compound to vesicles which contain the contents of digestive organelles (endoplasmic reticula) derived from human liver cells. The tests were done by Microconstants Inc., San Diego, Calif., using methods substantially as described in J. R. Hill, “In vitro drug metabolism using liver microsomes,” Curr. Protocols Pharmacol., Chapter 7, Unit 7.8 (2004), John Wiley & Sons, Inc.
The results, in Table 1 below, indicate the percentage decomposition of the test compound after 1 hour. […] Although degraded as rapidly, or even more rapidly than DM, other compounds remain of interest due to their receptor binding activities, as detailed further below.

[9] = cited from earlier work
[10] = inhibition of radioligand binding, read-out: Sigma-1 Ki
[11] = inhibition of radioligand binding, read-out: Sigma-1 IC50

Chain of human recombinant hERG (Q12809 whole entry, looked up): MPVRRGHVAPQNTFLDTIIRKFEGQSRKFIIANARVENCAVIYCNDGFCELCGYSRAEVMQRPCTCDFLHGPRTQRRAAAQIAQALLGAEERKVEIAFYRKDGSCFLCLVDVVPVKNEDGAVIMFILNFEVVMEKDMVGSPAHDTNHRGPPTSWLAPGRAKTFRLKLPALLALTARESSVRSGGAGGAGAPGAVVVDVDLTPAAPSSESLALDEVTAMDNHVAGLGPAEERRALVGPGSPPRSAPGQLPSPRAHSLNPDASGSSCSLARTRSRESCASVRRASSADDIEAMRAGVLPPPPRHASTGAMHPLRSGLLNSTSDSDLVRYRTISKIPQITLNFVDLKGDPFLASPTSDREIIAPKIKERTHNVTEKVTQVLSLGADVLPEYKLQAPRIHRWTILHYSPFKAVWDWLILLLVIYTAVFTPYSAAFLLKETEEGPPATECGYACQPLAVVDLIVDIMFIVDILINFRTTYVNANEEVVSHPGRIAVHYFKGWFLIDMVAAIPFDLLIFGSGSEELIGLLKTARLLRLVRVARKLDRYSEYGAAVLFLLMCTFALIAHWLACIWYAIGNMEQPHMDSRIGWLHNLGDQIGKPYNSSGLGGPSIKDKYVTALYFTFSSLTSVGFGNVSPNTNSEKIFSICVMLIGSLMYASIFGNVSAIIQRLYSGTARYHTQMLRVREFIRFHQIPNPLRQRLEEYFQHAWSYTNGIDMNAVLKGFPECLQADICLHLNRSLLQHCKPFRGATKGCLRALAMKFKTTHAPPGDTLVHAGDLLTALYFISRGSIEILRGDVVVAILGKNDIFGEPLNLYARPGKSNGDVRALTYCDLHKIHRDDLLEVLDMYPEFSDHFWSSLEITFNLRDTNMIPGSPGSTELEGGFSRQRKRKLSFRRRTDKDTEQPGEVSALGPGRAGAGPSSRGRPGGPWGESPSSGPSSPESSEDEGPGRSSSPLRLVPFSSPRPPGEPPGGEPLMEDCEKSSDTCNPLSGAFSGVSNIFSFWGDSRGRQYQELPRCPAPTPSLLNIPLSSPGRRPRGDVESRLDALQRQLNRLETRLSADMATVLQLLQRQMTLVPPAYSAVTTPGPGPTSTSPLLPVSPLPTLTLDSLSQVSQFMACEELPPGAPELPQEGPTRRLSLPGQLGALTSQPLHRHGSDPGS
Chain of sigma-1 receptors (Q99720 whole entry, looked up): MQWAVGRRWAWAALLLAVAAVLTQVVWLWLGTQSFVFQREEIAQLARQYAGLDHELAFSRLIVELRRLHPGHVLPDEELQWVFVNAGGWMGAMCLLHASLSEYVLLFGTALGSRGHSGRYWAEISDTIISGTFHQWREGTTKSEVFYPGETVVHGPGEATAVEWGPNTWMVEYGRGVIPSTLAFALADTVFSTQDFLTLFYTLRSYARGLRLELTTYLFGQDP

[2H]C([2H])(Oc1ccc2c(c1)[C@]13CCCC[C@@H]1[C@H](C2)N(C([2H])([2H])[2H])CC3)C(F)F [CNS1-D5, (1S,9S,10S)-4-(1,1-dideuterio-2,2-difluoroethoxy)-17-(trideuteriomethyl)-17-azatetracyclo[7.5.3.0^1,10.0^2,7]-heptadeca-2,4,6-triene]
IC50 [1]: 29.8 µM | Ki [1]: 12 µM | IC50 [2]: 54.7 µM | Ki [2]: 10.1 µM | Ki [3, 10]: 22 nM | Papp A→B at 0.1 μM ([4]; apical to basolateral): 14.4 ×10⁻⁶ cm/s | Papp B→A at 0.1 μM ([4]; basolateral to apical): 12.5 ×10⁻⁶ cm/s | Papp A→B at 1 μM ([4]; apical to basolateral): 18.4 ×10⁻⁶ cm/s | Papp B→A at 1 μM ([4]; basolateral to apical): 15.4 ×10⁻⁶ cm/s | IC50 [5]: 34.5 µM | Ki [5]: 7.48 µM | IC50 [6]: 44.1 nM | Ki [6]: 26.2 nM | Ki [7]: 9.9 µM | half-life [8]: > 240 min | % decomposition at 1 hour [8]: 9.7%

CN1CC[C@@]23CCCC[C@@H]2[C@@H]1Cc1ccc(OCc2ccncc2)cc13 [CNS4]
% decomposition at 1 hour [8]: 100%

C=CCN(C)CC[C@@]12CCCC[C@@H]1C=Cc1ccc(OC)cc12 [CNS22]
IC50 [3]: 29.1 nM | Ki [3]: 20.5 nM | half-life [8]: 36 min

[2H]C([2H])(Oc1ccc2c(c1)[C@]13CCCC[C@@H]1[C@H](C2)N(CCOC)CC3)C(F)F [CNS27-D2, (1S,9S,10S)-4-(1,1-dideuterio-2,2-difluoro-ethoxy)-17-(2-methoxyethyl)-17-azatetracyclo[7.5.3.0^1,10.0^2,7]-heptadeca-2,4,6-triene]
IC50 [1]: 28.8 µM | Ki [1]: 11.6 µM | IC50 [2]: 124 µM | Ki [2]: 23 µM | Ki [3, 10]: 1.6 nM | Papp A→B at 0.1 μM ([4]; apical to basolateral): 10.2 ×10⁻⁶ cm/s | Papp B→A at 0.1 μM ([4]; basolateral to apical): 9.76 ×10⁻⁶ cm/s | Papp A→B at 1 μM ([4]; apical to basolateral): 11.6 ×10⁻⁶ cm/s | Papp B→A at 1 μM ([4]; basolateral to apical): 13.1 ×10⁻⁶ cm/s | IC50 [5]: 22.3 µM | Ki [5]: 4.8 µM | IC50 [6]: 2680 nM | Ki [6]: 1590 nM | Ki [7]: > 23 µM

CN1CC[C@@]23CCCC[C@@H]2[C@@H]1Cc1ccc(OCC(F)(F)F)cc13 [CNS-222, (1S,9S,10S)-4-(2,2,2-trifluoroethoxy)-17-methyl-17-azatetracyclo[7.5.3.0^1,10.0^2,7]heptadeca-2(7),3,5-triene]
IC50 [3, 11]: 50 nM

[2H]C([2H])(Oc1ccc2c(c1)[C@]13CCCC[C@@H]1[C@H](C2)N(C)CC3)C(F)F [CNS1-D2, (1S,9S,10S)-4-(1,1-dideuterio-2,2-difluoroethoxy)-17-methyl-17-azatetracyclo[7.5.3.0^1,10.0^2,7]heptadeca-2(7),3,5-triene]
IC50 [3, 11]: 57.8 nM | Ki [3, 10]: 40.6 nM | IC50 [7]: > 30 µM | half-life [8]: 123 min

COc1ccc2c(c1Br)[C@]13CCCCC1[C@H](C2)N(C)CC3 (stereo partly drawn) [CNS6-A2]
IC50 [3, 11]: 247 nM

CN1CC[C@@]23CCCC[C@@H]2[C@@H]1Cc1ccc(O)c(Br)c13 [CNS6, (1S,9S,10S)-3-bromo-4-hydroxy-17-methyl-17-azatetracyclo[7.5.3.0^1,10.0^2,7]-heptadeca-2(7),3,5-triene]
IC50 [3, 11]: 172 nM | Ki [3, 10]: 121 nM | IC50 [7]: > 30 µM | % decomposition at 1 hour [8]: 56%

Cc1ccc2c(c1)[C@]13CCCC[C@@H]1[C@H](C2)N(C)CC3 [Dimemorphan (DIM), reference compound]
IC50 [3, 11]: 527 nM | Ki [3, 10]: 371 nM | IC50 [7]: > 30 µM | t1/2 [8]: 22 min

COc1cc2c(cc1Br)CC1C3CCCC[C@@]23CCN1C (stereo partly drawn) [CNS7-M]
IC50 [3]: > 10000 nM

CN1CC[C@@]23CCCCC2C1Cc1ccc(OCC(F)F)c(Br)c13 (stereo partly drawn) [CNS6-A1-D2]
IC50 [3, 11]: 21.8 nM | Ki [3, 10]: 15.3 nM | IC50 [7]: > 30 µM | t1/2 [8]: 60 min

CC(C)NCC(O)COc1cccc2ccccc12 (stereo not drawn) [Propranolol, reference compound]
Papp A→B ([4]; apical to basolateral): 21.2 ×10⁻⁶ cm/s | Papp B→A ([4]; basolateral to apical): 39 ×10⁻⁶ cm/s

[2H]C([2H])(Oc1ccc2c(c1)[C@]1(CCN(C)CC=C)CCCC[C@@H]1C=C2)C(F)F [CNS23-D2]
IC50 [3, 11]: 11.1 nM | Ki [3, 10]: 7.8 nM | half-life [8]: 32 min

CN1CC[C@@]23CCCC[C@@H]2[C@@H]1Cc1ccc(O)cc13 [Dextorphan (DX), reference compound]
IC50 [3, 11]: 259 nM | Ki [3, 10]: 182 nM | IC50 [7]: 1.53 µM | Ki [7]: 1.11 µM

COc1ccc2c(c1)[C@]13CCCC[C@@H]1[C@H](C2)N(C)CC3 [Dextromethorphan (DM), 3-methoxy-17-methyl-(9α,13α,14α)-morphinan, reference compound]
IC50 [2]: 51.7 µM | Ki [2]: 9.58 µM | IC50 [3]: 137 nM | Ki [3]: 96.3 nM | Papp A→B at 0.1 μM ([4]; apical to basolateral): 15.9 ×10⁻⁶ cm/s | Papp B→A at 0.1 μM ([4]; basolateral to apical): 10.8 ×10⁻⁶ cm/s | Papp A→B at 1 μM ([4]; apical to basolateral): 19 ×10⁻⁶ cm/s | Papp B→A at 1 μM ([4]; basolateral to apical): 14.2 ×10⁻⁶ cm/s | IC50 [5]: 49.1 µM | Ki [5]: 10.6 µM | IC50 [7]: 6.82 µM | Ki [7]: 4.52 µM | plasma levels ([9]; fast metabolizers, 30 mg dose, four hours post ingestion): less than 5 ng/ml | plasma levels ([9]; poor metabolizers, oral dose of 30 mg, at 24 hours): above 5 ng/ml | half-life [8]: 35 min | % decomposition at 1 hour [8]: 69%

COc1ccc2c(c1)[C@]13CCCCC1C(C2)N(Cc1cccnc1)CC3 (stereo partly drawn) [CNS10]
% decomposition at 1 hour [8]: 98.4%

CN1CC[C@@]23CCCC[C@@H]2C1Cc1ccc(OCC(F)F)cc13 [CNS1]
rate of metabolism and degradation compared with DM [8]: metabolized and degraded less rapidly than DM | % decomposition at 1 hour [8]: 6.1%

CN1CC[C@@]23CCCC[C@@H]2C1Cc1ccc(OCCF)cc13 [CNS2]
rate of metabolism and degradation compared with DM [8]: metabolized and degraded less rapidly than DM | % decomposition at 1 hour [8]: 15.4%

[2H]C([2H])(Oc1ccc2c(c1)[C@]13CCCC[C@@H]1[C@H](C2)NCC3)C(F)F [N-desmethyl CNS1-D2, (1S,9S,10S)-4-(1,1-dideuterio-2,2-difluoro-ethoxy)-17-azatetracyclo[7.5.3.0^1,10.0^2,7]heptadeca-2,4,6-triene]
IC50 [1]: 37.7 µM | Ki [1]: 15.2 µM | IC50 [2]: 142 µM | Ki [2]: 26.3 µM | Ki [3, 10]: 70 nM | Papp A→B at 0.1 μM ([4]; apical to basolateral): 9.71 ×10⁻⁶ cm/s | Papp B→A at 0.1 μM ([4]; basolateral to apical): 6.33 ×10⁻⁶ cm/s | Papp A→B at 1 μM ([4]; apical to basolateral): 10.8 ×10⁻⁶ cm/s | Papp B→A at 1 μM ([4]; basolateral to apical): 10.1 ×10⁻⁶ cm/s | IC50 [5]: 26.6 µM | Ki [5]: 5.73 µM | IC50 [6]: 470 nM | Ki [6]: 279 nM | Ki [7]: 3.08 µM | half-life [8]: > 240 min | % decomposition at 1 hour [8]: 10.1%
